Test results from ChEMBL document CHEMBL1201862, “PubChem BioAssay data set” (2004).
Active and inactive are the calls of the source.

Key:
[1] = test system: Streptococcus sp. 'group A'; assay: growth inhibition of control SK(-) GAS strain, dose response, counter-screen for streptokinase expression inhibitor project, luminescence, kanamycin, BacTiterGlo, confirmation (AID 1900); type: functional, organism-based
[2] = biological target: T1, Probable nicotinate-nucleotide adenylyltransferase (Staphylococcus aureus (strain N315), UniProt P65502); type: functional, Staphylococcus aureus subsp. aureus N315;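 on IC50 Mean: confirmatory dose-response retesting of NadD inhibitor hits first found in an ultra-high-throughput screen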
T1 sequence (P65502 whole entry): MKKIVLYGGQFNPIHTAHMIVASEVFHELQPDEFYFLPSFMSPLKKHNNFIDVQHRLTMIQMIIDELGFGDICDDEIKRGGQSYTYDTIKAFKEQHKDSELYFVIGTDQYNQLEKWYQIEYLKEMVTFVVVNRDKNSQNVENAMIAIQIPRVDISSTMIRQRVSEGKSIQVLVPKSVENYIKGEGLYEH

[3] = biological target: T2, Streptokinase A (Streptococcus pyogenes serotype M1, UniProt P10520); assay: S. pyogenes streptokinase expression inhibitors, potency, dose response, plasminogen activation absorbance, OD405 (AID 1914); type: functional, Streptococcus pyogenes M1 GAS;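 further: secreted streptokinase activity via plasminogen activation per viability signal from cell pellet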
T2 sequence (P10520 whole entry): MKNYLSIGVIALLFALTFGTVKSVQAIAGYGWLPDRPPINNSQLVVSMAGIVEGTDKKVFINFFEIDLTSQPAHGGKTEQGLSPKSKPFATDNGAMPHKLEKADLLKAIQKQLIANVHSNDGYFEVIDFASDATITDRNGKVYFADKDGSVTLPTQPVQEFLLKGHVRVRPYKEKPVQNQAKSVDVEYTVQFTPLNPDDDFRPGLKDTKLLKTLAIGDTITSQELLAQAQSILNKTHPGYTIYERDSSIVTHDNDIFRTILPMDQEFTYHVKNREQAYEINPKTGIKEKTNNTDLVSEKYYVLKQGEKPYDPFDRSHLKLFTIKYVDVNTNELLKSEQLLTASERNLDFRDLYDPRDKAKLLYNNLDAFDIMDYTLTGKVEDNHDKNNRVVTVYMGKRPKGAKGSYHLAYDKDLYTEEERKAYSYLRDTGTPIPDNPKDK

[4] = biological target: T3, Small ubiquitin-related modifier 1 (Homo sapiens, UniProt P63165); assay: inhibitors of SUMO1 peptide binding, dose response, biochemical, fluorescence polarization, uHTS hits (AID 624382); type: functional; conditions: read-out: IC50_Mean
T3 sequence (P63165 whole entry): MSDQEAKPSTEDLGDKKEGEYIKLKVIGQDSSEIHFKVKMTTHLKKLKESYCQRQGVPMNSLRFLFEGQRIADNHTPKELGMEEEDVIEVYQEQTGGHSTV

[5] = biological target: T3, Small ubiquitin-related modifier 1; assay: inhibitors of SUMO1 partner interactions, dose response, biochemical, FRET (AID 624383); type: functional; conditions: read-out: IC50_Mean
[6] = biological target: T1, Probable nicotinate-nucleotide adenylyltransferase; type: functional, Staphylococcus aureus subsp. aureus N315; conditions: read-out: IC50_Mean
[7] = biological target: DNA (cytosine-5)-methyltransferase 1 (Homo sapiens, UniProt P26358); assay: DNMT1 methyltransferase inhibitors, confirmation, biochemical, fluorescent molecular beacon (AID 602386); type: functional
DNA (cytosine-5)-methyltransferase 1, sequence (P26358 whole entry): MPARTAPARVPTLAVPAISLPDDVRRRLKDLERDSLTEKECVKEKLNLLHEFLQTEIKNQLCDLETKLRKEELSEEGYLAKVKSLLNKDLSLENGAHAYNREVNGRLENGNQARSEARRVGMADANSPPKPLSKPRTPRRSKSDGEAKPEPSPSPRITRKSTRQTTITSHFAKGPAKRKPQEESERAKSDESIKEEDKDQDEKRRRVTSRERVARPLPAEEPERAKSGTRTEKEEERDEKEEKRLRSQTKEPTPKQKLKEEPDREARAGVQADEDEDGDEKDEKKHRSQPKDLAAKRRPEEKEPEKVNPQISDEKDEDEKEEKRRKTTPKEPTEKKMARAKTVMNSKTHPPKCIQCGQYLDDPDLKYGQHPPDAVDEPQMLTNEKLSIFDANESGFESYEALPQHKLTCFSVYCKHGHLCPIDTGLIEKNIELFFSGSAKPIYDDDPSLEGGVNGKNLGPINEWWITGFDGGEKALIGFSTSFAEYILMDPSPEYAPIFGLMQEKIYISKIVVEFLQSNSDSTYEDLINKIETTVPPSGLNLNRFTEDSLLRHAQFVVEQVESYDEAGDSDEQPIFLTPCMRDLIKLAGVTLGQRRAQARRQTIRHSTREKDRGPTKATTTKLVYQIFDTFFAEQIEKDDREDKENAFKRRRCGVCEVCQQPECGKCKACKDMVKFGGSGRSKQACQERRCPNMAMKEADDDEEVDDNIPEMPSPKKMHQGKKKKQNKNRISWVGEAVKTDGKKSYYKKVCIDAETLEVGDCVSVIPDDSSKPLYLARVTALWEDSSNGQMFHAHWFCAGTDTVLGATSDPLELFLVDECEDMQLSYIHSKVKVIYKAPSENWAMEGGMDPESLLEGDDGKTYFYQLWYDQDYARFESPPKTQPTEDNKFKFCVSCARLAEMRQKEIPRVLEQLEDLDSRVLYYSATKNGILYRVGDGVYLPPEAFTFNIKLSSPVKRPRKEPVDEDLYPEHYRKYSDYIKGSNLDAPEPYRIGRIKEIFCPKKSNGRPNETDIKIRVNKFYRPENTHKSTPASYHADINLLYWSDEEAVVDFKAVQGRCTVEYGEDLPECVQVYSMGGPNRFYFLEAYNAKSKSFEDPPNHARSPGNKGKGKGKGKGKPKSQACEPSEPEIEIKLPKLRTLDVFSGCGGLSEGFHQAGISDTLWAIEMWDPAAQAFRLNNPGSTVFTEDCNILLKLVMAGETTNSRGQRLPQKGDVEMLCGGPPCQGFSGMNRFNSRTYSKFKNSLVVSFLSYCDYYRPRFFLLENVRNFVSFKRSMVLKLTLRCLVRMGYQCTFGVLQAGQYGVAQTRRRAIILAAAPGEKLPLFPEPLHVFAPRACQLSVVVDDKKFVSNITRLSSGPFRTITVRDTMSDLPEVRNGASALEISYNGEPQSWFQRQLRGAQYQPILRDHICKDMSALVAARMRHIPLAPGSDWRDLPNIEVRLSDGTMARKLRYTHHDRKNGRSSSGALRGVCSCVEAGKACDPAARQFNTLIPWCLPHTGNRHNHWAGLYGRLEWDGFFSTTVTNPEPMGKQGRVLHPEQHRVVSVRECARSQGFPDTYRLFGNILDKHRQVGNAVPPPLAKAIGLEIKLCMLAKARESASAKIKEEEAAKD

[8] = biological target: Dual specificity tyrosine-phosphorylation-regulated kinase 1A (Rattus norvegicus, UniProt Q63470); type: biochemical, Homo sapiens
[9] = test system: Streptococcus; assay: Group A Streptococcus viability loss, dose response, counter-screen for streptokinase expression inhibitor project, luminescence, BacTiterGlo (AID 1915); type: functional, organism-based;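 further: potency for reduction of bacterial viability or growth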
[10] = biological target: T4, High affinity choline transporter 1 (Homo sapiens, UniProt Q9GZV3); assay: CHT inhibitors, dose response, cell-based, 5-point CRC, membrane potential dye (AID 504840); type: functional
T4 sequence (Q9GZV3 whole entry): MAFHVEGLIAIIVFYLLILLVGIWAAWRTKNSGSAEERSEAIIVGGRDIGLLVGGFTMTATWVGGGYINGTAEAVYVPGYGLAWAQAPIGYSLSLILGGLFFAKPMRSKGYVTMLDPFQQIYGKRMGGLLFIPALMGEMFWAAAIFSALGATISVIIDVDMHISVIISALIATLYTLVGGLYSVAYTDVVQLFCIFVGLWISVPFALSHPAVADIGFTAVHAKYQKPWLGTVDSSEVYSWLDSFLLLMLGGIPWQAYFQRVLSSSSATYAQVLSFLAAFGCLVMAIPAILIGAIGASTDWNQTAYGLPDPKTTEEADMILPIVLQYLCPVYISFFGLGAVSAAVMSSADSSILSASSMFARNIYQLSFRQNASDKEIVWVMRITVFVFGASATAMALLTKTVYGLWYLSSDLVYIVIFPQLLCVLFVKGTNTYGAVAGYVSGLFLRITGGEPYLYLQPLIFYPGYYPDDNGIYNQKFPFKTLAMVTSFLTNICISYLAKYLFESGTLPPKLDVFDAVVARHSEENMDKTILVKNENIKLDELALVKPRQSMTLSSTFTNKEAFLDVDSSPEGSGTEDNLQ

[11] = biological target: T4, High affinity choline transporter 1; assay: CHT inhibitors, dose response, cell-based, 10-point CRC, membrane potential dye (AID 588401); type: functional;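 further: membrane potential dye fluorescence of choline-evoked depolarization via CHT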
[12] = inhibitors of clade B AD8 Env fusion, dose response, cell-based, cherry-pick (AID 652062); type: functional;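 further: luciferase signal from cell-cell fusion driven by HIV-1 clade B AD8 Env; potency is for inhibitors of fusion seen as a drop in luminescence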
[13] = cells; type: functional, cell-based; conditions: HEK-CNG
[14] = biological target: Galanin receptor type 3 (Homo sapiens, UniProt O60755); assay: Fluorescence-based cell-based primary high throughput dose response assay to identify antagonists of the Galanin Receptor 3 (GalR3).; type: functional
Galanin receptor type 3, sequence (O60755 whole entry): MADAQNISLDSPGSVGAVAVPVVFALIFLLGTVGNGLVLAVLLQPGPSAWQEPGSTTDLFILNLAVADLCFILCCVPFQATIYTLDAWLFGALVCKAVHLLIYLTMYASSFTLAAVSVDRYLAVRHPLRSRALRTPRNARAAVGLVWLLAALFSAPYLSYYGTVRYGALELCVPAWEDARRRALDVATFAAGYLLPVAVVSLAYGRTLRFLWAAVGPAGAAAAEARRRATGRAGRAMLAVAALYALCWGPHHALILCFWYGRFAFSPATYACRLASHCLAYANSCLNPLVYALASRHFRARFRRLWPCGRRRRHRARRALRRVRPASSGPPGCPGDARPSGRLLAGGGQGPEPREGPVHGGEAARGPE

[15] = HepG2 cell cytotoxicity, dose response, cytotoxicity control for Shn3 inhibitor project, CellTiter-Glo, cherry-picked (AID 624134); type: functional, cell-based
[16] = Shn3 3'UTR reporter inhibitors, dose response, cell-based, Clone20 osteoblasts, firefly luciferase, cherry-picked (AID 624132); type: functional;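 further: firefly luciferase luminescence from reporter carrying the Shn3 3'UTR in osteoblasts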
[17] = control 3'UTR Renilla luciferase suppression, dose response, counter-screen for Shn3 inhibitor project, cell-based, Clone20-Shn3RL, cherry-picked (AID 624133); type: functional
[18] = biological target: Melanocortin receptor 4 (Homo sapiens, UniProt P32245); assay: MC4R antagonist potency on cAMP, dose response, cell-based, TR-FRET, biased antagonists (AID 602298); type: functional;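 further: antagonist potency against agonist-stimulated cAMP production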
Melanocortin receptor 4, sequence (P32245 whole entry): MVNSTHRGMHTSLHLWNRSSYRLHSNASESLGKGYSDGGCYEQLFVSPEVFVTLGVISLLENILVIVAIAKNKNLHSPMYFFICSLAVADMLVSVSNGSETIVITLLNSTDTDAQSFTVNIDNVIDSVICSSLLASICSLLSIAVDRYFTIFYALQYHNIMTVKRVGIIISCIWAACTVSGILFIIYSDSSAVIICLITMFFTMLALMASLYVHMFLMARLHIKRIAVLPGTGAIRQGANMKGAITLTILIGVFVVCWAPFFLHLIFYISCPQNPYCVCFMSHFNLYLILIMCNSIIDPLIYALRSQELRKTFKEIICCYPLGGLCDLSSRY

[19] = nonselective inhibitors of cellular cAMP signaling, dose response, counter-screen for MC4R biased antagonist project, cell-based, TR-FRET cAMP detection (AID 602305); type: functional;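 further: U2OS cells stimulated with forskolin near its EC80 as the cAMP inducer; potency is for inhibition of forskolin-stimulated cAMP signaling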
[20] = biological target: Large T antigen (Simian virus 40, UniProt P03070); type: functional, Betapolyomavirus macacae;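 further: Confirmatory-stage PubChem screen for compounds that inhibit SV40 T antigen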
Large T antigen, sequence (P03070 whole entry): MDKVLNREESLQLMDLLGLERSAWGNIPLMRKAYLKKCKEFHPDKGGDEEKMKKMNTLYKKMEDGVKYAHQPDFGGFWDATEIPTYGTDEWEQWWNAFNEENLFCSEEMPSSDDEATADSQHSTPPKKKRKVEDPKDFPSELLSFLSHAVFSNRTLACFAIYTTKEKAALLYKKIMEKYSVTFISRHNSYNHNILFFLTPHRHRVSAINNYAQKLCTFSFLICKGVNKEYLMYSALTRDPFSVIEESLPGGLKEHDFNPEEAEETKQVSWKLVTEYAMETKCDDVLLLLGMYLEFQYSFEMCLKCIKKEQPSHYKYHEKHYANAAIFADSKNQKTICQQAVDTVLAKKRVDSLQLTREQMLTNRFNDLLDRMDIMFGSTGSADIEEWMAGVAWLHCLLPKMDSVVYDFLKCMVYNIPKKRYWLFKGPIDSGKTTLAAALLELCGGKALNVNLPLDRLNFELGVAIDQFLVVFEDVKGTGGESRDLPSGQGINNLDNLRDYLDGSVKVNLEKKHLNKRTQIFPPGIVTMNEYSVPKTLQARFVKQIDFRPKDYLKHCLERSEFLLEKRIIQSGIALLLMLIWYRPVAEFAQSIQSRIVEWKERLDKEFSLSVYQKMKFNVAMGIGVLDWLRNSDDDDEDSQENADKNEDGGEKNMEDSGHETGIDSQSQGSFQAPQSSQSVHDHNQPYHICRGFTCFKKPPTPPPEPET

In the case of O=S(=O)(Nc1c(S(=O)(=O)c2ccccc2)c2nc3ccccc3nc2n1C1CCCCC1)c1ccccc1, the EC50 [1] is reported as 5.18 µM (active), the IC50 [2] is reported as 5.42 µM (active) and the EC50 [3] is reported as 5.18 µM (active). The IC50 [4] was > 66.6 µM (inactive), the IC50 [5] was 9.65 µM (active) and the IC50 [6] was 21.7 µM (active). For the same compound, the IC50 [7] was 5.23 µM (active), the AC50 [8] was 26.7 µM (active) and the EC50 [9] was 12 µM (active).

With Cc1cc(Cl)c(S(=O)(=O)N2CCCC2)cc1OCC(=O)NC1CCCCC1 the IC50 [10] was 4.68 µM (active), the IC50 [11] was 4.47 µM (active) and the AC50 [12] was 18.1 µM (active).

In the case of CC(=O)OC[C@]12CC[C@H]3[C@@](C)(CC[C@H]4C(C)(C)CCC[C@]34C)[C@@H]1CC(C1=CC(=O)OC1O)O2 (some centres undefined), the EC50 [13] is reported as > 29.9 µM (inactive), the IC50 [14] is reported as > 1.11 µM (active) and the AC50 [15] is reported as 8.6 µM (active). The AC50 [16] was 0.634 µM (active), the AC50 [17] was 3.12 µM (active) and the IC50 [18] was 15.2 µM (inactive). The IC50 [19] was 55 µM (inactive).

In the case of O=C(CSc1c2c(nc3cc(Cl)ccc13)CCCC2)NCCN1CCOCC1, the IC50 [18] is reported as > 64.6 µM (inactive) and the IC50 [19] is reported as > 64.6 µM (inactive).

For CCOC(=O)c1c(N)ssc1=S, the IC50 [10] was 8.48 µM (active), the IC50 [20] was 95.5 µM (active) and the IC50 [11] was 3.81 µM (active).
